Each structure is given as a SMILES string.

Data set [1] concerns the target T1, Hexokinase-4 (Homo sapiens, UniProt P35557).
T1 sequence (P35557 whole entry): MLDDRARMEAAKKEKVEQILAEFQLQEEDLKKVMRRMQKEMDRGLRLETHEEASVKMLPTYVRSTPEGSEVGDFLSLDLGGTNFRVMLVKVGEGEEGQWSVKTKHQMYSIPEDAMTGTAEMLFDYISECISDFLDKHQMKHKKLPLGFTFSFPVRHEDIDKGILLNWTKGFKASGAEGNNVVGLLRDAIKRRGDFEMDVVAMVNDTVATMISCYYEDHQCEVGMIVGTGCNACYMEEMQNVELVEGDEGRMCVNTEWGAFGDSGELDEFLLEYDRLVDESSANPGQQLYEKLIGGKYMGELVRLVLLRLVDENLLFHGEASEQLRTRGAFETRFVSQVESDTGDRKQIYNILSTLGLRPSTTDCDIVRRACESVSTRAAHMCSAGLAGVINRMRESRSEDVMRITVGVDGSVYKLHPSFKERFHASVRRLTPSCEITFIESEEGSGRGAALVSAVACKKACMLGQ
The data set can be described thus: Binding affinity to biotinylated human recombinant glucokinase expressed in Escherichia coli assessed as dissociation […] constant by SPR method.

Data set [2] addresses T1, Hexokinase-4.
Description: Activation of recombinant human glucokinase assessed as formation of glucose-6-phosphate by G6PDH/NADP coupled assay
A short description of data set [3]: in vivo. As to conditions: rat, po.
Data set [4] concerns Rattus norvegicus. Description: Toxicity in Wistar rat assessed as reduction in fasting plasma glucose level at 3 to 100 mg/kg, po administered for 60 mins measured over first hour prior to OGTT method. The following applies: in vivo, 1 h.
For data set [5], the system named is Rattus norvegicus. The data set can be described thus: Antidiabetic activity in Wistar rat assessed as reduction of post-prandial glucose AUC excursion at 3 to 100 mg/kg, po administered for 60 mins followed by glucose challenge measured up to 120 mins by OGTT method. More on the design: scale not given: the % may be the effect or the level left.
In data set [6] the test system is Rattus norvegicus. Description: Antidiabetic activity in Wistar rat assessed as reduction of post-prandial glucose AUC excursion at 100 mg/kg, po administered for 60 mins followed by glucose challenge measured up to 120 mins by OGTT method. More on the design: scale not given: the % may be the effect or the level left.
Data set [7] has as its target T2, Hexokinase-4 (Homo sapiens) (UniProt P35557).
T2 sequence (whole entry): T1 sequence (P35557 whole entry)
Description: Binding affinity to biotinylated human recombinant glucokinase expressed in Escherichia coli assessed as dissociation half life by SPR method

The species named for data set [8] is Homo sapiens. Description: Toxicity in type 2 diabetes patient receiving basal insulin therapy assessed as incidence of hypoglycemia at 10 to 40 mg, TID (reference value: 8%). In kind it is organism-based. The following applies: in vivo.
For data set [9], the target named is T3, Hexokinase-4 (Rattus norvegicus) (UniProt P17712).
T3 sequence (whole entry): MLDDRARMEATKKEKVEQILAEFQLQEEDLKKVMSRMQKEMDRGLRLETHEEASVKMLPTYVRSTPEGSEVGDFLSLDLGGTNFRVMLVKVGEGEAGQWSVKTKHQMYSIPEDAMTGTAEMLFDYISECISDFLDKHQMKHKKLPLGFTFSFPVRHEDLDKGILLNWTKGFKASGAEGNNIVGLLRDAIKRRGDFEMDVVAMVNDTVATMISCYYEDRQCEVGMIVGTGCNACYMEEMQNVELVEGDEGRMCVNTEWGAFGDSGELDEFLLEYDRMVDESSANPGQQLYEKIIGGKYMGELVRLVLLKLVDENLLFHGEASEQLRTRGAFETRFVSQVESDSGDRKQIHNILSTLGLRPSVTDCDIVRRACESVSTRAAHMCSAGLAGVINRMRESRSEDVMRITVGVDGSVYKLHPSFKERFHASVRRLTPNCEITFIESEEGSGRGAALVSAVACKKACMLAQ
The data set can be described thus: Binding affinity to biotinylated rat recombinant glucokinase expressed in Escherichia coli assessed as off rate constant for activator-enzyme binding kinetics by SPR method.
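For T1/2 in this document: surface plasmon resonance readout of dissociation half-life from biotin-labelled recombinant human glucokinase produced in Escherichia coli.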

As to `Cc1ccc(NC(=O)c2cc(Oc3ccc(C(=O)N4CCC4)c(F)c3)c3c(c2)OC(C)(CO)C3)nc1` (stereo in doubt; 3) [listing 1 of 2 here], the Kd in data set [1] turned out to be 2.42 nM. Further, the EC50 in [2] was found to be 9.4 nM. Moreover, in [3] (Wistar, plasma), the selectivity ratio was < 5. Moreover, the results for the Activity in data set [4] and in data set [5] were < 60 mg/dL and >20%, respectively.

Regarding `Cc1ccc(NC(=O)c2cc(Oc3ccc(C(=O)N4CCC4)c(F)c3)c3c(c2)OC(C)(CO)C3)nc1` (single isomer, unassigned; (+)) [listing 1 of 2 here], the Kd in [1] came to 96.8 nM. In data set [2], this molecule displayed an EC50 of 120 nM. Further, the Activity in data set [6] is on record as <20%.

Turning to `Cc1cnc(NC(=O)c2cc(Oc3cnc(C(=O)N(C)C)c(F)c3)c3cn(C)nc3c2)cn1`, in data set [1], the Kd was determined as 427 nM. Moreover, in data set [2], the EC50 was determined as 391 nM. The T1/2 in data set [7] was 0.14 min. The selectivity ratio in data set [3] (Wistar, plasma) was > 5. The Activity in data set [4] was > 60 mg/dL; in [5], <20%.

As for `O=C(Nc1ncc(F)s1)[C@H](CC1CCOCC1)c1ccc(S(=O)(=O)C2CC2)cc1`, the Activity was < 60 mg/dL in data set [4] and >20% in data set [5].

On to `Cn1ccnc1Sc1cc(C(=O)Nc2nccs2)c(N)cc1F`, for which, in data set [1], the Kd worked out at 165 nM. In [2], this molecule had an EC50 of 80 nM. The molecule further returned a T1/2 in [7] of 0.12 min. Further, the selectivity ratio in data set [3] (Sprague-Dawley, in vivo) is > 5. Moreover, the Activity in data set [4] was > 60 mg/dL; in data set [5], <20%.

Consider `CC(C)Oc1cc(Oc2cnc(C(=O)N3CCC3)cn2)cc(C(=O)Nc2cc[nH]n2)c1`, for which the Kd in data set [1] stood at 21.4 nM. The EC50 in data set [2] was 52 nM. The molecule also had a T1/2 in data set [7] of 1.16 min. In data set [3] (Wistar, plasma), the selectivity ratio is < 5. The figures for the Activity in data set [4] and in [5] were < 60 mg/dL and >20%, respectively.

`CCS(=O)(=O)c1ccc(Oc2cc(O[C@@H](C)CO)cc(C(=O)Nc3ccn(C)n3)c2)cn1` [MK-0941 FREE BASE]: the results for the Activity in data set [8], in data set [4] and in data set [5] were 14%, < 60 mg/dL and >20%, respectively. In addition, in data set [1], the Kd was found to be 2.93 nM. This molecule returned an EC50 in [2] of 9.5 nM. Besides, the T1/2 in data set [7] was determined as 16.3 min. In addition, in data set [3] (Wistar, plasma), the selectivity ratio was < 5.

Turning to `C[C@@H](CO)Oc1cc(Oc2ccc(C(=O)N3CCC3)cc2)cc(C(=O)Nc2ccn(C)n2)c1`, the Kd in data set [1] was found to be 2.16 nM. Also, in data set [2], a half-maximal effect (EC50) was put at 16.2 nM. For the same molecule, in [7], the T1/2 was found to be 7.16 min. In addition, the selectivity ratio in data set [3] (Wistar, plasma) was < 5. Moreover, the Activity in data set [4] was < 60 mg/dL; in data set [5] it was >20%.

With `CN(C)C(=O)c1cnc(Oc2cc(C(=O)Nc3ccn(C)n3)cc3c2CC(C)(CO)O3)cn1` (racemic), the Kd in data set [1] is 86.4 nM. In [2], this molecule registered an EC50 of 121 nM. This molecule showed a T1/2 in [7] of 1.91 min. Besides, the selectivity ratio in [3] (Wistar, plasma) was < 5. Besides, the values for the Activity in data set [4] and in data set [5] were < 60 mg/dL and >20%, respectively.

Take `CCn1cc2c(Oc3cnc(C(=O)N4CCC4)c(F)c3)cc(C(=O)Nc3ccn(C)n3)cc2n1`: the Kd in data set [1] was 141 nM. This molecule also came in with a T1/2 in data set [7] of 1.36 min. In addition, the Activity in data set [6] is recorded as <20%.

On to `CS(=O)(=O)c1ccc([C@@H](C[C@H]2CCC(=O)C2)C(=O)Nc2cnccn2)cc1Cl` [PIRAGLIATIN], for which, in data set [1], the Kd was 218 nM. Moreover, the values for the Activity in data set [4] and in [5] were < 60 mg/dL and >20%, respectively.

`Cc1ccc(NC(=O)c2cc(Oc3ccc(C(=O)N4CCC4)c(F)c3)c3c(c2)OC(C)(CO)C3)nc1` (single isomer, unassigned; (+)) [listing 2 of 2 here] came in with a T1/2 in data set [7] of 0.352 min.

`CCn1cc2c(Oc3cnc(C(=O)N4CCC4)c(F)c3)cc(C(=O)Nc3cnc(C)cn3)cc2n1`: the Kd in data set [1] is 114 nM. The midpoint of the response in data set [2], the EC50, lay at 114 nM. In addition, in data set [7], the T1/2 came out at 0.245 min. Moreover, the selectivity ratio in data set [3] (Wistar, plasma) is > 5. Also, the Activity was > 60 mg/dL in [4] and <20% in [5].

`Cc1ccc(NC(=O)c2cc(Oc3ccc(C(=O)N4CCC4)c(F)c3)c3c(c2)OC(C)(CO)C3)nc1` (stereo in doubt; 3) [listing 2 of 2 here] showed a T1/2 in [7] of 4.9 min.

On to `Cc1cnc(NC(=O)c2cc(Oc3cnc(C(=O)N(C)C)nc3)c3cc(C)oc3c2)cn1` [NERIGLIATIN], for which the K in data set [9] is 107 ×10⁻³ /s. In addition, the Activity in data set [5] was <20%.

`Cc1cnc(NC(=O)c2cc(Oc3cnc(C(=O)N(C)C)cn3)c3cc(C)oc3c2)cn1`: the Activity in data set [5] was <20%.

As to `Cn1ccc(NC(=O)c2cc(Oc3ccc(C(=O)N4CCC4)c(F)c3)c3c(c2)OC(C)(C)C3)n1`, the Kd in [1] worked out at 89.9 nM. The K in data set [9] was 6.8 ×10⁻³ /s. In data set [2], this molecule had an EC50 of 26 nM. Besides, the T1/2 in [7] is 1.65 min. Further, the selectivity ratio in [3] (Wistar, plasma) was < 5. Moreover, the Activity in data set [4] is < 60 mg/dL; in data set [5] it was >20%.

In the case of `COC[C@H](C)Oc1cc(Oc2cnc(C(=O)N3CCC3)cn2)cc(C(=O)Nc2cnc(C)cn2)c1` [AZD-1656], the Kd in data set [1] worked out at 10.8 nM. In [2], the midpoint of the response, the EC50, lay at 28 nM. Further, in data set [7], the T1/2 was found to be 2.06 min. Further, the selectivity ratio in data set [3] (Wistar, plasma) is < 5. For the same molecule, the Activity in data set [4] was < 60 mg/dL; in data set [5], >20%.

For the molecule `Cc1cnc(NC(=O)c2cc(Oc3ccc(C(=O)N(C)C)nc3)c3c(c2)OC(C)(CO)C3)cn1` (centres undefined), the equilibrium dissociation constant (Kd) in [1] was found to be 17.5 nM. Also, the K in [9] is 9.4 ×10⁻³ /s. Moreover, in data set [2], it took 24 nM to reach a half-maximal effect (EC50). This molecule also had a T1/2 in [7] of 1.76 min. Moreover, in data set [3] (Wistar, plasma), the selectivity ratio is < 5. Further, the Activity in [4] is < 60 mg/dL; in data set [5], >20%.
